Values quoted from earlier work, collected in patent publication US20210330725A1, “GARCINIA MANGOSTANA EXTRACT FOR PROMOTING HAIR GROWTH” (PIERRE FABRE DERMO-COSMETIQUE, priority 2018, published 2021).

System: hair follicles
Details: mice

C[C@@H]1CCN(C(=O)CC#N)C[C@@H]1N(C)c1ncnc2[nH]ccc12 [Tofacitinib, tofacitinib]
effect on hair cycle of topical treatment in telogen phase: rapid re-entry at the beginning of anagen phase
